# From patent publication US20180078615A1, “USE OF CCL2 TO INHIBIT ABNORMAL UTERINE BLEEDING” (UNIVERSITY OF SOUTH FLORIDA, priority 2015, published 2018)
# What was measured:
# VSMCs [1] = experiment: Transwell insert migration assay; assay type: cell-based, human; settings: 12-h incubation, 10^−7 M; control 48.4%
# Method: VSMCs (75,000 cells/200 μL) were suspended in M231 containing 1% charcoal striped FBS and either 0.1% ethanol (vehicle control) or the corresponding steroids and seeded onto insert wells (transwell filter with 12-μm pores; EMD Millipore). The inserts were then placed in 24-well plates containing 500 μL M231 with 1% charcoal striped FBS. After 12 h, cells remaining on the upper surface of the filter were removed with a cotton swab. Migrated cells were trypsinized, centrifuged, and resuspended in 200 μL of M231 medium. The cell suspensions were mixed with 200 μL 10% ethanol containing 0.4% Trypan blue dye and the live cell number was counted by Countess Automated Cell Counter (Invitrogen). See further details in SI Materials and Methods.
# Cultured VSMCs were grown in T-75 cell culture flasks in M231 (Life Technologies) with smooth muscle growth supplement (Life Technologies) with 100 U/mL penicillin, 100 μg/mL streptomycin, 0.25 μg/mL fungizone. Confluent VSMCs were washed twice with 1×PBS to remove residual serum, and then trypsinized, resuspended (75,000 cells per 200 μL per well) in M231 with 1% charcoal striped FBS with 0.1% ethanol (vehicle, control), 10^−7 M MPA (Sigma-Aldrich), 10^−7 M ETO (Organon), or 10^−7 M P4 (Sigma-Aldrich)±rCCL2 (R&D Systems) and seeded on insert wells (transwell filter with 12-μm pores; EMD Millipore), which were then placed in 24-well plates containing 500 μL M231 with 1% charcoal striped FBS. After 12 h, cells remaining on the upper surface of the filter were removed with a cotton swab. Migrated cells attached to the lower surface of each insert or to the surface of lower wells were collected by trypsinization, followed by centrifugation and resuspension in 200 μL of M231 medium. The cell suspensions were mixed with 200 μL 10% ethanol containing 0.4% Trypan blue dye (selectively stains only dead cells blue, whereas live cells with intact cell membranes remain unstained) for 5 min. A mixture of 100 μL M231 and 100 μL 10% ethanol containing 0.4% Trypan blue dye was used as a negative control. To detect live cell numbers, 10 μL of final cell/Trypan blue dye suspension from each treatment condition was pipetted into Countess Cell Counting Chamber Slide and counted by using Countess Automated Cell Counter (Invitrogen). The counting procedure was performed in duplicate.
# VSMCs [2] = experiment: Whole genome microarray analysis (Illumina HumanHT-12 v4) of cultured VSMCs treated with progestins; assay type: cell-based, human; settings: VSMCs treated by P4
# Excerpt: Cultured VSMCs (n=3) treated with control medium or medium containing medroxyprogesterone acetate (MPA, 10^−7 M), or etonogestrel (ETO, 10^−7 M) were processed for whole genome analyses using Illumina Human microarray kit. After qRT-PCR confirmation of several up and down regulated genes from microarray data, Ingenuity Pathway Analysis (IPA) determined relevant upstream signaling of LAPC altered gene expression. To investigate the role of genes and relevant signaling molecules identified by IPA, VSMCs (n=3) treated with MPA or ETO±1 or 10 ng/ml recombinant CCL2 (rCCL2)±STAT1 inhibitor, 5′-methyl-thioadenosine (MTA, 100 μM) were analyzed by BrdU incorporation proliferation, TUNEL based ELISA apoptosis and Transwell insert migration assays.
# VSMCs were thawed and cultured in medium 231 (M231; Life Technologies) with smooth muscle growth supplement (5% FBS; 2 ng/mL human basic fibroblast growth factor, 0.5 ng/mL human epidermal growth factor, 5 ng/mL heparin, 0.2 μg/mL insulin and 5 μg/mL BSA; Life Technologies) with 100 U/mL penicillin, 100 μg/mL streptomycin, 0.25 μg/mL fungizone. Confluent VSMCs were washed twice with 1×PBS to remove residual serum, passaged in 96-well or 6-well plates and incubated in parallel in M231 with 1% charcoal striped FBS with 0.1% ethanol (vehicle, control) or 10^−7 M MPA (Sigma-Aldrich) or 10^−7 M ETO (Organon) or 10^−7 M P4 (Sigma-Aldrich) for 15 min, 6, 48, and 72 h. VSMCs were then washed with ice-cold PBS and stored at −80° C. for further RNA and protein analyses.
# Total RNA was isolated using Qiagen miRNeasy Mini Kit (Qiagen) and RNeasy MinElute Cleanup Kit (Qiagen). The quality of isolated RNAs was confirmed using an Agilent 2100 Bioanalyzer. Microarray analysis was limited to those specimens in which RNA Integrity Number exceeded 8. Microarray processes were performed in the Keck Biotechnology Resource Laboratory at Yale University (New Haven, Conn.) using Illumina Human HT-12 v4 BeadChip (Illumina). Raw data without normalization were analyzed by GeneSpring GX12.5 software (Agilent Technologies-Silicon Genetics). Normalization was performed as described (35). Genes with a fold-change >1.25 and a P value<0.05 were considered differentially expressed. Ingenuity Pathway Analysis (IPA) software (Qiagen) explored molecular and biological networks related to differentially expressed genes.
smiles,measurement,setting,value
"CC(=O)[C@H]1CC[C@H]2[C@@H]3CCC4=CC(=O)CC[C@]4(C)[C@H]3CC[C@]12C [P4, progesterone]",migration rate,VSMCs [1],39.4%
same,"Fold-change, Chemokine (C-C motif) ligand 2 (CCL2)",VSMCs [2],−1.289
same,"Fold-change, Chromosome 9 ORF 167 (C9orf167)",VSMCs [2],−1.283
same,"Fold-change, Complement factor B (CFB)",VSMCs [2],−1.309
same,"Fold-change, Complement factor H, transcript variant 2 (CFH)",VSMCs [2],1.271
same,"Fold-change, Cyclin C, transcript variant 2 (CCNC)",VSMCs [2],1.343
same,"Fold-change, Eukaryotic translation initiation factor 4 gamma, 2, transcript variant 1 (EIF4G2)",VSMCs [2],1.3
same,"Fold-change, Fukutin, transcript variant 2 (FKiTN)",VSMCs [2],−1.299
same,"Fold-change, G protein-coupled receptor 1 (GPR1)",VSMCs [2],−1.283
same,"Fold-change, Homo sapiens thioredoxin domain containing 5, transcript variant 2 (TXNDC5)",VSMCs [2],1.361
same,"Fold-change, Hypothetical LOC100190938 (LOC100190938), transcript variant 2, noncoding RNA",VSMCs [2],−1.358
same,"Fold-change, Hypothetical gene supported by AK125735 (LOC441087)",VSMCs [2],−1.467
same,"Fold-change, Hypothetical protein FLJ40504 (FLJ40504)",VSMCs [2],−1.27
same,"Fold-change, Hypoxia-inducible factor 1, a subunit, transcript variant 1 (HIF1A)",VSMCs [2],1.328
same,"Fold-change, Integrin beta 1, transcript variant 1C-2 (ITGB1)",VSMCs [2],1.293
same,"Fold-change, Interleukin 33 (IL33)",VSMCs [2],1.275
same,"Fold-change, Janus kinase 1 (JAK1)",VSMCs [2],1.292
same,"Fold-change, Keratin 34 (KRT34)",VSMCs [2],1.268
same,"Fold-change, Microtubule-associated protein 1A (MAP1A)",VSMCs [2],−1.269
same,"Fold-change, Minichromosome maintenance complex component 8, transcript variant 1 (MCM8)",VSMCs [2],−1.32
same,"Fold-change, Mitogen-activated protein kinase kinase 2 (MAP2K2)",VSMCs [2],−1.346
same,"Fold-change, N-deacetylase/N-sulfotransferase (heparan glucosaminyl) 1 (NDST1)",VSMCs [2],−1.306
same,"Fold-change, OCIA domain containing 1, transcript variant 5 (OCIAD1)",VSMCs [2],−1.275
same,"Fold-change, PREDICTED: misc_RNA (LOC100131609)",VSMCs [2],1.266
same,"Fold-change, Paralemmin, transcript variant 1 (PALM)",VSMCs [2],−1.26
same,"Fold-change, Polyribonucleotide nucleotidyltransferase 1 (PNPT1)",VSMCs [2],−1.286
same,"Fold-change, Retinoic acid receptor responder (tazarotene induced) 1, transcript variant 1, (RARRES1)",VSMCs [2],−1.271
same,"Fold-change, Retinoic acid receptor responder (tazarotene induced) 1, transcript variant 2, (RARRES1)",VSMCs [2],−1.289
same,"Fold-change, Ring finger protein 11 (RNF11)",VSMCs [2],1.256
same,"Fold-change, Serum amyloid A1, transcript variant 1 (SAA1)",VSMCs [2],−1.324
same,"Fold-change, Serum amyloid A1 transcript variant 2 (SAA1)",VSMCs [2],−1.566
same,"Fold-change, Solute carrier family 44, member 1 (SLC44A1)",VSMCs [2],1.26
same,"Fold-change, Staphylococcal nuclease and tudor domain containing 1 (SN D1)",VSMCs [2],−1.25
same,"Fold-change, Sterol-C4-methyl oxidase-like, transcript variant 1 (SC4MOL)",VSMCs [2],1.296
same,"Fold-change, Superoxide dismutase 2, mitochondria! transcript variant 2 (SOD2)",VSMCs [2],−1.362
same,"Fold-change, Thioredoxin reductase 1, transcript variant 4 (TXNRD1)",VSMCs [2],1.255
same,"Fold-change, Ubiquitin-like modifier activating enzyme 3, transcript variant 2 (UBA3)",VSMCs [2],1.293
same,"Fold-change, Zinc finger protein 682, transcript variant 1 (ZNF682)",VSMCs [2],−1.254
same,"Fold-change, cDNA FLJ20769 fis, clone COL06674 (PREDICTED: Receptor tyrosine kinase-like orphan receptor 1)",VSMCs [2],1.271
same,"Fold-change, Armadillo repeat containing, X-linked 3, transcript variant 2 (ARMCX3)",VSMCs [2]; table entry 5,1.298
same,"Fold-change, Armadillo repeat containing, X-linked 3, transcript variant 2 (ARMCX3)",VSMCs [2]; table entry 10,1.284
